The assay concerns soil nitrification: conversion of ammonium-N(NH4+) into nitrate-N(NO3−), Tujunga loamy sand. The following applies: for nitrification inhibition (slowing the conversion of ammonium-N into nitrate-N), in words: text on Experiments 1 and 2.

Structures are written as SMILES. Where only a bound is given, the exact number is not on record here.

Text: Two soils were used in this experiment, a Tujunga loamy sand (thermic Typic Xeropsamments) collected in Dinuba, California along with a Clarion fine loam (mesic Typic Hapludolls), collected in Boone, Iowa.
Each soil was collected by hand from the top 15 mm of the soil profile and allowed to air-dry. Both soils were hand screened to remove large clumps and rocks that may have interfered with the experiment. Soil samples were taken before the start of the experiment and analyzed to assess the initial nutrient content and pH of the soil.
The experiments were made up of numerous individual plastic containers that each represented one (1) replicate of each fertilizer treatment and soil. All experiments were arranged as a completely randomized design consisting of 12-20 fertilizer treatments, two soils, with six replicates.
To begin the experiment, 200 g of the dried and screened soil was added to a 709 mL sealable plastic container. Distilled water was added to each container to bring the moisture level up to what would be considered optimal field moisture. It was important to determine this for each soil separately to ensure neither soil was too dry or too moist. This volume ranged from 15-25 ml per container with the Clarion soil being the highest. Once the appropriate amount of water was applied to each container, they were thoroughly stirred to ensure uniform mixing and to eliminate any clumps.
After the soil containers were filled and moistened, the individual liquid fertilizer treatments were prepared in a 100 ml Erlenmeyer flask. All treatments were applied as liquids to ensure uniform mixing and accurate applications. For some of the treatments a 20%-N urea solution was used as the primary nitrogen source. […]
All fertilizer treatments were made to the soil surface in each container using a micropipette at a nitrogen rate of 134.7 kg ha^−1 calculated on the surface area of each container which equals 125.8 cm^2. […]
Soil samples were initially taken at one (1) day after treatment (DAT). […] The difference in mass is recorded and used in later calculations. […]

`NC(N)=O` [unprotected urea, Urea]: under “after 8 weeks”, the “"nitrate levels" (nitrite+nitrate levels) in the soil” value is ≥ 300 ppm.

Regarding `N.N.O=S(=O)(O)O` [ammonium sulfates, ammonium sulfate], the “nitrification inhibition (slowing the conversion of ammonium-N into nitrate-N), in words” value is reported as “did not work”.

Take `O=S([O-])O.[K+]` [potassium bisulfite]: the “nitrification inhibition (slowing the conversion of ammonium-N into nitrate-N), in words” value is “did not work”.

For the origin of these results see US20240116832A1, “INHIBITORS OF SOIL NITRIFICATION AND PROCESSES TO PREVENT SAME” (Tessenderlo Group NV, priority 2019, published 2024).
